Measured values from US9903855B2, “Assays for screening for or identifying an agent or molecule that can block or inhibit AVB3 integrin from forming a complex with KRAS” (THE REGENTS OF THE UNIVERSITY OF CALIFORNIA, priority 2012, dated 2018).

Columns and labels:
[1] = test system: subcutaneous β3-positive tumors (FG-β3, FG-R); assay: Subcutaneous β3-positive tumor xenografts; conditions: monotherapy; lenalidomide 25 mg/kg/day, bortezomib 0.25 mg/kg
Description: To generate subcutaneous tumors, FG-β3, FG-R (after erlotinib resistance) and HCC-827 human carcinoma cells (5×10^6 tumor cells in 200 μl of PBS) were injected subcutaneously to the left or right flank of 6-8-week-old female nude mice. Tumors were measured every 2-3 days with calipers until they were harvested at day 10, 16 or after acquired resistance.
(B) Left, mice bearing subcutaneous β3-positive tumors (FG-β3) were treated with vehicle, erlotinib (25 mg/kg/day), lenalidomide (25 mg/kg/day) or the combination of erlotinib and lenalidomide. Tumor dimensions are reported as the fold change relative to size of the same tumor on Day 1. […] Right, mice bearing subcutaneous β3-positive tumors (FG-R) after acquired resistance to erlotinib were treated with vehicle, erlotinib (25 mg/kg/day), bortezomib (0.25 mg/kg), the combination of erlotinib and bortezomib.

[2] = test system: β3-positive cells (FG-β3, MDA-MB231, FG-R); assay: Soft agar anchorage independent growth, colonies counted; format: cell-based, human; conditions: erlotinib (0.5 μM), Lenalidomide (2 μM), PS-1145 (1 μM) alone, 10 to 15 days
From the text: Then, the soft agar were stained with crystal violet and the colonies were counted manually.

[3] = test system: FG and PANC-1 cells expressing or lacking integrin β3; assay: Soft agar / tumorsphere 3D growth, drug dose response (Example 3); format: cell-based, human; conditions: cells growing in 3D
Description: Tumorsphere assay was performed as previously described. Soft agar formation assays were performed essentially as described previously. […] The media was replaced with fresh inhibitor 2/5 times a week. […] (a) Effect of integrin β3 expression (ectopic expression for FG and integrin β3-specific knockdown for PANC-1) cells on drug treatment response. Cells were treated with a dose response of gemcitabine, cisplatin, erlotinib, lapatinib and linsitinib. […] Tumor volumes are expressed as mean±SEM. *P<0.05. […] Results are expressed as % tumor weight compared to vehicle control. *P<0.05. […] HCC827 cells were treated with vehicle control or erlotinib (12.5 mg/kg/day) until acquired resistance. […] Data are mean±SE; **P<0.001. […] Scale bar, 50 μm. (h) Limiting dilution in vivo determining the frequency of tumor-initiating cells for HCC827 vehicle-treated (vehicle) and erlotinib-treated tumors from (erlotinib resistant non-sorted) (e). The HCC827 erlotinib-treated tumors have been digested and sorted in two groups: the integrin β3- and the integrin β3+ population.

FG and FG-β3 cells = assay: Tumor sphere formation assay of FG and FG-β3 cells; format: cell-based, human; conditions: FG-β3 versus FG
Description: Tumor spheres formation assays were performed essentially as described previously^17. Briefly, cells were seeded at 1000 to 2000 cells per well and grown for 12 days to 3 weeks. Cells were treated with vehicle (DMSO), erlotinib (10 nM to 5 μM), lapatinib (10 nM to 5 μM), gemcitabine (0.001 nM to 5 μM), OSI-906 (10 nM to 5 μM), lenalidomide (10 nM to 5 μM), or cisplatin (10 nM to 5 μM), diluted in DMSO. The media was replaced with fresh inhibitor every day for erlotinib, lapatinib, lenalidomide and 3 times a week for cisplatin and gemcitabine. Colonies were stained with crystal violet and scored with an Olympus SZH10 microscope. Survival curves were generated at least with five concentration points.

[4] = test system: β3-negative and β3-positive cells; assay: Tumorsphere assay of β3-negative and β3-positive cells (Example 2); format: cell-based, human; conditions: β3-positive versus β3-negative cells
Description: Tumorsphere assay was performed as previously described (10). Cells were treated with vehicle (DMSO), erlotinib (10 nM to 5 μM), lapatinib (10 nM to 5 μM), gemcitabine (0.001 nM to 5 μM), OSI-906 (10 nM to 5 μM), lenalidomide (1 μM), cisplatin (10 nM to 5 μM), or bortezomib (4 nM) diluted in DMSO. The media was replaced with fresh inhibitor 2/6 times a week. Survival curves were generated at least with five concentration points.
(D) Representative photographs of crystal violet-stained tumorspheres of β3-negative and β3-positive cells after erlotinib, OSI-906, gemcitabine and cisplatin treatment. (E) Effect of integrin β3 expression on lapatinib, OSI-906, cisplatin and gemcitabine n=3; mean±SEM.

PANC-1 cells = assay: Tumor sphere formation assay, erlotinib dose-response; format: cell-based, human; conditions: knockdown of αvβ3 in PANC-1 cells
From the text: (§1) (a) Flow cytometric quantification of cell surface markers after 3 weeks treatment with erlotinib (pancreatic and colon cancer cells) or lapatinib (breast cancer cells). (b) Flow cytometric analysis of αvβ3 expression in FG and Miapaca-2 cells following erlotinib. Error bars represent s.d. (n=3 independent experiments). (c) Top, immunofluorescence staining of integrin αvβ3 in tissue specimens obtained from orthotopic pancreatic tumors treated with vehicle (n=3) or erlotinib (n=4). Scale bar, 50 μm. Bottom, Integrin αvβ3 expression was quantified as ratio of integrin αvβ3 pixel area over nuclei pixel area using Metamorph (*P=0.049 using Mann-Whitney U test). (d) Right, intensity (scale 0 to 3) of β3 expression in mouse orthotopic lung tumors treated with vehicle (n=8) or erlotinib (n=7). Left, immunohistochemical staining of β3. Scale bar, 100 μm.
Tumor spheres formation assays were performed essentially as described previously^17. Briefly, cells were seeded at 1000 to 2000 cells per well and grown for 12 days to 3 weeks. […] The media was replaced with fresh inhibitor every day for erlotinib, lapatinib, lenalidomide and 3 times a week for cisplatin and gemcitabine. Colonies were stained with crystal violet and scored with an Olympus SZH10 microscope.

[5] = test system: phosphorylated TBK1 and NF-κB; assay: Immunoblot analysis of RalB effectors in cells grown in suspension; format: cell-based, human; conditions: for levels of phosphorylated TBK1 and NF-κB: erlotinib (0.5 μM)
Description: Immunoblot analysis of FG, FG-β3 and FG-β3 stably expressing non-silencing or RalB-specific ShRNA, grown in suspension and treated with erlotinib (0.5 μM). pTBK1 refers to phospho-S172 TBK1, p-p65 NF-κB refers to phospho-p65 NF-κB S276, pFAK refers to phospho-FAK Tyr 861. Data are representative of three independent experiments. (b) Tumor spheres formation assay of FG cells ectopically expressing vector control, WT NF-κB FLAG tagged or constitutively active S276D NF-κB FLAG tagged constructs treated with erlotinib (0.5 μM). Error bars represent s.d. (n=3 independent experiments). *P<0.05, **P<0.001, NS=not significant. Immunoblot analysis showing NF-κB WT and S276D NF-κB FLAG transfection efficiency. (c) Tumor spheres formation assay of FG-β3 treating with non-silencing (shCTRL) or NF-κB-specific shRNA and exposed to erlotinib (0.5 μM). Error bars represent s.d. (n=3 independent experiments). *P<0.05, NS=not significant. (d) Dose response in FG-β3 cells treated with erlotinib (10 nM to 5 μM), lenalidomide (10 nM to 5 μM) or a combination of erlotinib (10 nM to 5 μM) and lenalidomide (1 μM). Error bars represent s.d. (n=3 independent experiments). *P<0.05, NS=not significant. (e) Model depicting the integrin αvβ3-mediated EGFR TKI resistance and conquering EGFR TKI resistance pathway and its downstream RalB and NF-κB effectors.
Cells were lysed in either RIPA lysis buffer (50 mM Tris pH 7.4, 100 mM NaCL, 2 mM EDTA, […], 10% Triton, 0.1% SDS) or Triton lysis buffer (50 mM Tris pH 7.5, 150 mN NaCl, 1 mM EDTA, 5 mM MgCl2, 10% Glycerol, 1% Triton) supplemented with complete protease and phosphatase inhibitor mixtures (Roche) and centrifuged at 13,000 g for 10 min at 4° C. Protein concentration was determined by BCA assay. […]
(A) Effect of RalB knockdown on erlotinib resistance of β3-positive epithelial cancer cell lines. […] Results are expressed as % of tumor weight changes after erlotinib treatment compared to vehicle. **P<0.01. […]

EGFR phosphorylation = assay: Immunoblot analysis of orthotopic FG tumor lysates; format: in vivo, mice; conditions: after 10 days of erlotinib
Description: Error bars represent s.d. […] Scale bar, 50 μm. […] Scale bar, 100 μm.
All mouse experiments were carried out in accordance with approved protocols from the UCSD animal subjects committee and with the guidelines set forth in the NIH Guide for the Care and Use of Laboratory Animals. Tumors were generated by injection of FG human pancreatic carcinoma cells (10^6 tumor cells in 30 μL of sterile PBS) into the tail of the pancreas of 6-8 week old male immune compromised nu/nu mice.

FG, H441, and CAPAN1 = assay: Erlotinib response of human carcinoma cell lines in 3D culture; format: cell-based; conditions: tumor cell lines with oncogenic KRAS
Description: (§2) Tumorsphere assay was performed as previously described (10).
(§3) (C) Percentage of integrin β3 positive cells in parental lines vs. after 3 or 8 weeks treatment with erlotinib. (D) Quantification of integrin β3 (ITGβ3) gene expression in human lung cancer biopsies from patients from the BATTLE Study (18) who were previously treated with an EGFR inhibitor and progressed (n=27), versus patients who were EGFR inhibitor naïve (n=39). (*P=0.04 using a Student's t test). (E) Paired human lung cancer biopsies obtained before and after erlotinib resistance were immunohistochemically stained for integrin β3. Scale bar, 50 μm. (F) Right, effect of integrin β3 knockdown on erlotinib resistance of β3-positive cells. Cells were treated with 0.5 μM of erlotinib. […] Left, effect of integrin β3 ectopic expression on erlotinib resistance in FG and H441 cells. […] (G) Right, effect of integrin β3 knockdown on erlotinib resistance in vivo, A549 shCTRL and A549 sh integrin β3 (n=8 per treatment group) were treated with erlotinib (25 mg/kg/day) or vehicle during 16 days. Results are expressed as average of tumor volume at day 16. *P<0.05. Left, orthotopic FG and FG-β3 tumors (>1000 mm^3; n=5 per treatment group) were treated for 30 days with vehicle or erlotinib. Results are expressed as % tumor weight compared to vehicle control. *P<0.05.

H1650 cells = assay: as above; format: cell-based; conditions: wildtype KRAS and mutant EGFR
Description: as §2, §3

[6] = test system: H441 human lung adenocarcinoma orthotopic tumors; assay: Orthotopic lung cancer xenograft model; format: in vivo, mice
From the text: as §1

[7] = test system: stage IV non-small cell lung cancer; assay: Serial biopsies from NSCLC patients on erlotinib therapy; format: in vivo, human
From the text: Tumor biopsies from University of California, San Diego (UCSD) Medical Center stage IV non-small cell lung cancer patients were obtained before erlotinib treatment and 3 patients before and after erlotinib resistance. All biopsies are from lung or pleural effusion. […] This work was approved by the UCSD Institutional Review Board (IRB).

## Nc1cccc2c1CN(C1CCC(=O)NC1=O)C2=O (racemic) [lenalidomide, (RS)-3-(4-amino-1-oxo-3H-isoindol-2-yl)piperidine-2,6-dione]
[1]
  tumor growth: failed to impact tumor growth
[2]
  response of β3-positive cells, tumorsphere formation in soft agar: resistant

## C[C@]1(O)C[C@@H](c2nc(-c3ccc4ccc(-c5ccccc5)nc4c3)c3c(N)nccn32)C1 [OSI-906]
[3]
  effect of β3 expression on drug response: reduced sensitivity
FG and FG-β3 cells
  effect of αvβ3 expression on drug resistance: induced resistance

## O=C(Nc1cc(Cl)cc2c1[nH]c1cnccc12)c1cccnc1 [PS-1145]
[2]
  response of β3-positive cells, tumorsphere formation in soft agar: resistant

## CC(C)C[C@H](NC(=O)[C@H](Cc1ccccc1)NC(=O)c1cnccn1)B(O)O [bortezomib]
[1]
  tumor growth: failed to impact tumor growth

## N.N.[Cl][Pt][Cl] [cisplatin]
[3]
  effect of β3 expression on drug response: did not impact the response
FG and FG-β3 cells
  effect of αvβ3 expression on drug resistance: failed to protect cells
[4]
  effect of integrin β3 expression on resistance: did not impact resistance

## C#Cc1cccc(Nc2ncnc3cc(OCCOC)c(OCCOC)cc23)c1 [erlotinib, N-(3-ethynylphenyl)-6,7-bis(2-methoxyethoxy) quinazolin-4-amine]
PANC-1 cells
  increase in tumor cell sensitivity to erlotinib: 10 fold
[5]; FG and FG-β3, erlotinib (0.5 μM), Example 2
  activation of TBK1 and NF-κB: decreased the activation of these effectors only in the absence of integrin β3
[5]; αvβ3 negative cells
  levels of phosphorylated TBK1 and NF-κB: reduced levels of phosphorylated TBK1 and NF-κB
[5]; β3-positive cells
  levels of phosphorylated TBK1 and NF-κB: remained activated
[3]
  effect of β3 expression on drug response: reduced sensitivity
EGFR phosphorylation
  EGFR phosphorylation in tumor lysates: suppressed EGFR phosphorylation
[2]
  response of β3-positive cells, tumorsphere formation in soft agar: resistant
FG, H441, and CAPAN1
  erlotinib sensitivity: sensitive
H1650 cells
  erlotinib sensitivity: resistant
[6]; 100 mg/kg/day by oral gavage, start 3 weeks after tumor cell injection
  time treated until moribund: ~58 days
[6]; systemic erlotinib treatment for 7-8 weeks
  tumor response to systemic erlotinib: developed resistance
[7]; Patient 1
  time to disease progression: 920 days
[7]; Patient 2
  time to disease progression: 92 days
[7]; Patient 3
  time to disease progression: 120 days
[7]; all 3 patients
  initial clinical response: initial partial response

## Nc1ccn([C@@H]2O[C@H](CO)[C@@H](O)C2(F)F)c(=O)n1 [gemcitabine]
[3]
  effect of β3 expression on drug response: did not impact the response
FG and FG-β3 cells
  effect of αvβ3 expression on drug resistance: failed to protect cells
[4]
  effect of integrin β3 expression on resistance: did not impact resistance

## CS(=O)(=O)CCNCc1ccc(-c2ccc3ncnc(Nc4ccc(OCc5cccc(F)c5)c(Cl)c4)c3c2)o1 [lapatinib]
[3]
  effect of β3 expression on drug response: reduced sensitivity
